Results taken from ChEMBL document CHEMBL1146508, “Cyclonellin, a new cyclic octapeptide from the marine sponge Axinella carteri” (J Nat Prod, 2004).
Activity calls are given as the source filed them. The rule behind the calls is not given here. Peptide text beside a SMILES is read from it.

Key:
COLO 205 = assay: Cytotoxicity against human COLO205 cells at 50 ug/mL; type: functional, cell-based
OVCAR-3 = assay: Cytotoxicity against human OVCAR-3 cells at 50 ug/mL; type: functional, cell-based

`C[C@@H]1NC(=O)[C@H]([C@@H](C)O)NC(=O)[C@H](Cc2ccc(O)cc2)NC(=O)[C@@H]2CCCN2C(=O)[C@H](Cc2ccc(O)cc2)NC(=O)[C@H](CCCNC(=N)N)NC(=O)[C@@H]2CCCN2C(=O)[C@H](CC(N)=O)NC1=O` (cyclo(ANPRYPYT)) was tested, and the Activity (COLO 205) was “inactive” and the Activity (OVCAR-3) was “inactive”.
